{"source": "patent US20170197996A1", "about": "“Cholinesterase Inhibitors” (priority 2012, published 2017)", "test_system": "acetylcholinesterase", "assay_type": "in vivo, rat", "conditions": "Trials C, D; 0.030 mg/Kg dose 10 min prior to tracer; FIG. 11, FIG. 12 vs FIG. 8"}
{"smiles": "CCOP(=O)(OCC)Oc1ccc([N+](=O)[O-])cc1", "note": "[paraoxon]", "values": [{"measurement": "reduction of tracer [^18F]-6 SUV radioactivity signals across all brain ROIs", "result": "significant reduction of SUV radioactivity signals"}]}
